# Source: ChEMBL document CHEMBL1671755, “Prevalence, mutation patterns, and effects on protease inhibitor susceptibility of the L76V mutation in HIV-1 protease” (2010)
# Columns and labels:
# Format in all cases: functional
# [1] = tested on: Human immunodeficiency virus 1; assay: Antiviral activity against Human immunodeficiency virus 1 harboring protease inhibitor resistance-associated mutations and protease L76V mutation in viral protease assessed as fold change in drug susceptibility relative to wild type
# [2] = tested on: Human immunodeficiency virus 1; assay: Antiviral activity against Human immunodeficiency virus 1 harboring protease inhibitor resistance-associated mutations assessed as fold change in drug susceptibility relative to wild type
# [3] = tested on: Human immunodeficiency virus 1; assay: Antiviral activity against Human immunodeficiency virus 1 harboring M46I, M46L, I54V, and V82A mutations in viral protease assessed as fold change in drug susceptibility relative to wild type
# [4] = tested on: Human immunodeficiency virus 1; assay: Antiviral activity against Human immunodeficiency virus 1 harboring M46I mutation in viral protease assessed as fold change in drug susceptibility relative to wild type
# [5] = tested on: Human immunodeficiency virus 1; assay: Antiviral activity against Human immunodeficiency virus 1 harboring M46I, M46L, I54V, V82A and L76V mutations in viral protease assessed as fold change in drug susceptibility relative to wild type
# [6] = tested on: Human immunodeficiency virus 1; assay: Antiviral activity against Human immunodeficiency virus 1 harboring M46I and L76V mutations in viral protease assessed as fold change in drug susceptibility relative to wild type
SMILES,fold change (FC) [1],fold change (FC) [2],fold change (FC) [3],fold change (FC) [4],fold change (FC) [5],fold change (FC) [6]
Cc1c(O)cccc1C(=O)N[C@@H](CSc1ccccc1)[C@H](O)CN1C[C@H]2CCCC[C@H]2C[C@H]1C(=O)NC(C)(C)C [NELFINAVIR],36.1,78.3,13.9,7.9,14.8,2.5
CC(C)(C)NC(=O)[C@@H]1C[C@@H]2CCCC[C@@H]2CN1C[C@@H](O)[C@H](Cc1ccccc1)NC(=O)[C@H](CC(N)=O)NC(=O)c1ccc2ccccc2n1 [SAQUINAVIR],43.5,197.4,2.8,1.2,3.2,0.7
Cc1cccc(C)c1OCC(=O)N[C@@H](Cc1ccccc1)[C@@H](O)C[C@H](Cc1ccccc1)NC(=O)[C@H](C(C)C)N1CCCNC1=O [LOPINAVIR],174.2,46.1,28,1.6,163.1,9.9
COC(=O)N[C@H](C(=O)N[C@@H](Cc1ccccc1)[C@@H](O)CN(Cc1ccc(-c2ccccn2)cc1)NC(=O)[C@@H](NC(=O)OC)C(C)(C)C)C(C)(C)C [ATAZANAVIR],11.3,75.2,5.7,4.3,2.1,0.9
CC(C)CN(C[C@@H](O)[C@H](Cc1ccccc1)NC(=O)O[C@H]1CO[C@H]2OCC[C@H]21)S(=O)(=O)c1ccc(N)cc1 [DARUNAVIR],37.4,8.5,1.1,0.9,4.2,2.8
CCC[C@@]1(CCc2ccccc2)CC(O)=C([C@H](CC)c2cccc(NS(=O)(=O)c3ccc(C(F)(F)F)cn3)c2)C(=O)O1 [TIPRANAVIR],3.6,6.7,1.7,1.2,1.2,0.8
CC(C)(C)NC(=O)[C@@H]1CN(Cc2cccnc2)CCN1C[C@@H](O)C[C@@H](Cc1ccccc1)C(=O)N[C@H]1c2ccccc2C[C@H]1O.O [INDINAVIR],60.1,40.1,9.7,3.4,37.4,8.6
CC(C)c1nc(CN(C)C(=O)N[C@H](C(=O)N[C@@H](Cc2ccccc2)C[C@H](O)[C@H](Cc2ccccc2)NC(=O)OCc2cncs2)C(C)C)cs1 [RITONAVIR],113.2,129.7,37.6,2.2,63.6,2.7
CC(C)CN(C[C@@H](O)[C@H](Cc1ccccc1)NC(=O)O[C@H]1CCOC1)S(=O)(=O)c1ccc(N)cc1 [AMPRENAVIR],70.9,21.1,3.7,1.5,19.3,6.7
